As a reminder, the IC50 is the concentration that gives 50% inhibition. Higher therefore signals weaker potency.

Calls of active or inactive are those of the source. The rule behind the calls is not given here.

For one assay, the target named is Programmed cell death protein 1/Programmed cell death 1 ligand 1 (Homo sapiens, UniProt Q15116+Q9NZQ7). Briefly: Antagonist activity at PD-1/PD-L1 interaction (unknown origin). The class given is protein-complex assay.
Chain of Programmed cell death protein 1/Programmed cell death 1 ligand 1 (Q15116 whole entry): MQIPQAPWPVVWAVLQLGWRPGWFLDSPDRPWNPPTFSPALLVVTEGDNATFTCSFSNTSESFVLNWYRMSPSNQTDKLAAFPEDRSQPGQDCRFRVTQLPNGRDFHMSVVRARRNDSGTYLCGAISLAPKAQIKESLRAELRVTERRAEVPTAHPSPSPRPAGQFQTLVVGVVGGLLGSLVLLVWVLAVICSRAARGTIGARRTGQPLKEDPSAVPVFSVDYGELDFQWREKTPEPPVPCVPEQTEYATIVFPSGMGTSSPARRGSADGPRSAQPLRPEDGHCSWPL
Chain of Programmed cell death protein 1/Programmed cell death 1 ligand 1 (Q9NZQ7 whole entry): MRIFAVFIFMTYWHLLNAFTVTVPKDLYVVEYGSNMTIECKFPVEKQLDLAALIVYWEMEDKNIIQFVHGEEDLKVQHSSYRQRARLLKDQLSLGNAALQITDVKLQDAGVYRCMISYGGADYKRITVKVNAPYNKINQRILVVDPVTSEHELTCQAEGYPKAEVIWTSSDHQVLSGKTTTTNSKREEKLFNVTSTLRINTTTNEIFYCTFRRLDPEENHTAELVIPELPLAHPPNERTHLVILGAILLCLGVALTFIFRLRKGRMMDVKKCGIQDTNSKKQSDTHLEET
Take `COc1cc(/C=C2\CCc3c2cccc3-c2cccc3c2CC/C3=C\c2cc(CN[C@H](CO)C(=O)O)cc(OC)c2)cc(CN[C@@H](CO)C(=O)O)c1`: the IC50 came to 2.9 nM.

Consider `COCCNCc1ccc(C(F)(F)F)c(/C=C/c2cccc(-c3cccc(/C=C/c4cc(CN[C@@](C)(CO)C(=O)O)ccc4C(F)(F)F)c3C)c2Cl)c1`, for which the IC50 came out at 2.3 nM.

The compound `Cc1c(/C=C/c2cc(CN[C@@H](CO)C(=O)O)ccc2C(F)(F)F)cccc1-c1ccc2c(c1)OCCO2` returned an IC50 of 13 nM. Against the preceding compound, the IC50 is about 5.7-fold higher.

The target in a further assay is Programmed cell death 1 ligand 1 (Homo sapiens) (UniProt Q9NZQ7). In words: Induction of human PD-L1 dimerization at 1:1 molar ratio of protein:compound by 1H NMR analysis.
Chain of Programmed cell death 1 ligand 1 (Homo sapiens) (Q9NZQ7 whole entry): as above
For `CCNCc1nnnn1/C=C/c1cccc(-c2ccccc2)c1C`, the outcome was Active.

`Cc1c(/C=C/n2nnnc2C(C)NCCCO)cccc1-c1ccc2c(c1)OCCO2` (stereo unspecified): the outcome was Active.

For `Cc1c(/C=C/n2nnnc2CN2CCCOC2)cccc1-c1ccccc1`, the outcome was Active.

For the origin of these results see ChEMBL document CHEMBL5385964, “1,5-Disubstituted tetrazoles as PD-1/PD-L1 antagonists” (RSC Med Chem, 2024).
